Test [1] has as its system HEK293. Description: EBV LMP1 TES2 canonical NF-kB signalling blockers – cell-based, HEK293, luciferase, cherry-pick, dose response (AID 588343). Type of test: functional. The following applies: Homo sapiens.
In test [2] the target is T1, Aminopeptidase N (Plasmodium falciparum FcB1/Columbia, UniProt O96935).
T1 sequence (O96935 whole entry): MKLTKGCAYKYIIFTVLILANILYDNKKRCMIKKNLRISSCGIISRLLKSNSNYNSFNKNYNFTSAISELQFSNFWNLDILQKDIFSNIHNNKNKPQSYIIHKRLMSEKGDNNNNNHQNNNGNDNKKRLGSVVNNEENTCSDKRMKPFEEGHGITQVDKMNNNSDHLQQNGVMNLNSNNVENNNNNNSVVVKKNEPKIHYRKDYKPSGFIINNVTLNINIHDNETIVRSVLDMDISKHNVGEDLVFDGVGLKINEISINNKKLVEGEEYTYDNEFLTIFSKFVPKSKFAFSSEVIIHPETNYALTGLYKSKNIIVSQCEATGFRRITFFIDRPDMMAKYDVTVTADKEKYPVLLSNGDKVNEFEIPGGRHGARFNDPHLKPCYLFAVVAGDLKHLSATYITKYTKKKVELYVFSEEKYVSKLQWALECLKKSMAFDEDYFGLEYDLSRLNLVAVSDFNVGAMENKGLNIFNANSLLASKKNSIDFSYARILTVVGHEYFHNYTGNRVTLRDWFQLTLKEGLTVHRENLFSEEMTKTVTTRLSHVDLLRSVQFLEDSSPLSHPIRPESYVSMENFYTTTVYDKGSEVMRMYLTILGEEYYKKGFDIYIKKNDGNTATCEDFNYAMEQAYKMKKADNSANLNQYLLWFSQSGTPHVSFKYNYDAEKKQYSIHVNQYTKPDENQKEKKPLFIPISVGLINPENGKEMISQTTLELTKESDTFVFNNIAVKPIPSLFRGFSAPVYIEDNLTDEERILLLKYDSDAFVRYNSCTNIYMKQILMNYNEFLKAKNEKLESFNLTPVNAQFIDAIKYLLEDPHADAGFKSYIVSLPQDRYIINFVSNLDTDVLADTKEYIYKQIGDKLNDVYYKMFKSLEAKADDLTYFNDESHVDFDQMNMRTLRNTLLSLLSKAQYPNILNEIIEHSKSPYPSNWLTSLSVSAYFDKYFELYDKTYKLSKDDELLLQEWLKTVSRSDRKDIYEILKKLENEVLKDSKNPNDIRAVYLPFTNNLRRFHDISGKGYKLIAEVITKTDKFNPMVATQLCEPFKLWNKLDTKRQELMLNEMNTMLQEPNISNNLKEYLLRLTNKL
The experiment in a line: malaria alanyl aminopeptidase activity blockers – biochemical, fluorogenic H-Leu-NHMec substrate, 1536-well (AID 1445). The arrangement: species or system Plasmodium falciparum 3D7, 3D7.

For test [3], the target named is Genome polyprotein (dengue virus type 2, UniProt P29990). Description: flavivirus cap methylation enzyme inhibition – biochemical, confirmation dose response, primary screen (AID 588689). It is filed as functional.
Chain of Genome polyprotein (P29990 2492-3391 limits assumed): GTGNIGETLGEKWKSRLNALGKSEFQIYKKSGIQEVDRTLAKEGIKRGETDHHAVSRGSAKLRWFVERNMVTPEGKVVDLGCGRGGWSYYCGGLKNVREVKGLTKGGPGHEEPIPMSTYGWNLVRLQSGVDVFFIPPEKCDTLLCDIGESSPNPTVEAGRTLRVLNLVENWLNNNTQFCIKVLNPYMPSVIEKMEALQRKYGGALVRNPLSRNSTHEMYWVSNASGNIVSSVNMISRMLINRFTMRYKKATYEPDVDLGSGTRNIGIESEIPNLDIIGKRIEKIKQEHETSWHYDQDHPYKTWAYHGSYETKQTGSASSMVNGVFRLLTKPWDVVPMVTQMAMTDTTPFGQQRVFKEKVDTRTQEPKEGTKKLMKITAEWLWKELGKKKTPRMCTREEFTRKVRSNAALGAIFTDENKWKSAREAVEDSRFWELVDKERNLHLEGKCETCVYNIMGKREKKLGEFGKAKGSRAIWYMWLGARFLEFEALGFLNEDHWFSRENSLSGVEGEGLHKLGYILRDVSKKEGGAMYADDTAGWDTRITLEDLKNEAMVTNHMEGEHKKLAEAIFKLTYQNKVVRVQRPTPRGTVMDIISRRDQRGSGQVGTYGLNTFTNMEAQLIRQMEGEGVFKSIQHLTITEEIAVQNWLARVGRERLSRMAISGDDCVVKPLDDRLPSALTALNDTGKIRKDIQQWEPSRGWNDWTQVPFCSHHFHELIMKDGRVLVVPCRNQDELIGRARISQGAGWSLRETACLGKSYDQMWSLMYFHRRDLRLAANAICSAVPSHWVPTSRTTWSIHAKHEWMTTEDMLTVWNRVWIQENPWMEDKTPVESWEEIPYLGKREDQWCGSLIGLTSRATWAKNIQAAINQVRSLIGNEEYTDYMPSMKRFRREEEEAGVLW
Test [4] concerns the target T2, Polyadenylate-binding protein 1 (Homo sapiens, UniProt P11940). Description: MLLE binding blockers, Cy5 peptide tracer – biochemical, fluorescence polarization, Cy5-PAM2 peptide, secondary, miRNA deadenylation inhibitor project, dose response (AID 602260). Type of test: functional. The following applies: read-out: IC50_Mean.
For test [5], the target named is T2, Polyadenylate-binding protein 1. Description: MLLE domain peptide-binding blockers, IC50 – biochemical, fluorescence polarization, FITC-PAM2 peptide, dose response (AID 602259). Type of test: functional. The following applies: read-out: IC50_Mean.
In test [6] the test system is BJ. Description: BJ-TERT fibroblast viability loss – cell-based, RAS-independent, luminescence, dose response (AID 1933). The following applies: Homo sapiens. It is filed as functional.
The test system of test [7] is BJ. The experiment in a line: cells. It is filed as functional, cell-based. The following applies: Homo sapiens.
Test [8] concerns BJ. The experiment in a line: BJ-TERT-LT-ST fibroblast viability loss – cell-based, RAS-independent, luminescence, dose response (AID 1935).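 Also: BJ fibroblasts immortalized with TERT plus LT and ST oncogenes.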 The following applies: Homo sapiens. Type of test: functional.
Test [9] can be described thus: DRD fibroblast viability loss – cell-based, non-viral oncogenic, luminescence, dose response (AID 1934). The following applies: Homo sapiens. Type of test: functional.
Test [10] has as its system BJ. The experiment in a line: growth inhibition of engineered Ras-driven BJ cells – cell-based, alamar blue fluorescence, cherrypicked samples, dose response (AID 2631).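 Also: confirmatory dose-response assay in RAS-dependent BJ fibroblasts engineered with TERT, LT and ST, with cytotoxicity read by fluorescence.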 Type of test: functional. The following applies: Homo sapiens.
For test [11], the system named is Vero. The experiment in a line: cells. Type of test: functional. The following applies: Chlorocebus sabaeus.
For test [12], the target named is T3, Caspase-3 (Homo sapiens, UniProt P42574).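 Also: Dose-response selectivity test against caspase-3 for candidate inhibitors of sentrin-specific proteases (SENPs).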
T3 sequence (P42574 whole entry): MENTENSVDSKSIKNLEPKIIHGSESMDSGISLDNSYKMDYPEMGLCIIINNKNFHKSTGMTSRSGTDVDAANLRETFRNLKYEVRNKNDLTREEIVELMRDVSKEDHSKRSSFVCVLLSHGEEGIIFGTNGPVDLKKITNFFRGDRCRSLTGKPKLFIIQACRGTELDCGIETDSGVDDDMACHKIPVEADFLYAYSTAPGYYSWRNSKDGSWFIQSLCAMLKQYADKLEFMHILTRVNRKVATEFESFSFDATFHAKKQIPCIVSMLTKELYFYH
Type of test: functional.

The target of test [13] is T4, Sentrin-specific protease 7 (Homo sapiens, UniProt Q9BQF6).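 Also: Luminescence-based dose-response confirmation of ultra-high-throughput screening hits, measuring inhibition of SENP7.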
T4 sequence (Q9BQF6 whole entry): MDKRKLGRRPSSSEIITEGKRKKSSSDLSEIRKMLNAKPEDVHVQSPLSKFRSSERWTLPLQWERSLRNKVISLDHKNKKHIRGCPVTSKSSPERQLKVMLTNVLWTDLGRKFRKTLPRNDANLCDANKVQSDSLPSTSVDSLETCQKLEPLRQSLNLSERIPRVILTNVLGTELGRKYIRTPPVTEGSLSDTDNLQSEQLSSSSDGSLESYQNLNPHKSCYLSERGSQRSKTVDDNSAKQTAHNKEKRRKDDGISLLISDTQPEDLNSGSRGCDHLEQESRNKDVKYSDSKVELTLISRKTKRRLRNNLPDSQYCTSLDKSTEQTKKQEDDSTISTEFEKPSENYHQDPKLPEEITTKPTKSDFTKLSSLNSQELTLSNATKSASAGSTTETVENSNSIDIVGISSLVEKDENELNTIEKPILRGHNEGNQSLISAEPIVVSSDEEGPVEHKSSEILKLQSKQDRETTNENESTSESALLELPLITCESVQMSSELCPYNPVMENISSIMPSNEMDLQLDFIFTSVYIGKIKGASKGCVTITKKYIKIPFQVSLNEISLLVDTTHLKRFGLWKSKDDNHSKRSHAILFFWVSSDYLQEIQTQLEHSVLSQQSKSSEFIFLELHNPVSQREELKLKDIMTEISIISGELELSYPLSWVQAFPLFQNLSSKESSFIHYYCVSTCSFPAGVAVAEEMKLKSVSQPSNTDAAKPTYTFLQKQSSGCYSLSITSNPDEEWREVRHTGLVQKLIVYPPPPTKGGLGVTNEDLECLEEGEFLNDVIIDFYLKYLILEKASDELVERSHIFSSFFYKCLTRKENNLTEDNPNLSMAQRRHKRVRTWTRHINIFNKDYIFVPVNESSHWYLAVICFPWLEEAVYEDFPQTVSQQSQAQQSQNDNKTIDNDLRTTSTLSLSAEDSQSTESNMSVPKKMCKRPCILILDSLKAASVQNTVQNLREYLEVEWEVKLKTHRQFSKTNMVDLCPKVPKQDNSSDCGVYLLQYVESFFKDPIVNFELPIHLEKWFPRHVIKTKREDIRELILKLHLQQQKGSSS
It is filed as functional.

For test [14], the target named is T5, Sentrin-specific protease 6 (Homo sapiens, UniProt Q9GZR1).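 Also: Luminescence-based dose-response confirmatory assay of SENP6 inhibition, following up an ultra-high-throughput screen.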
T5 sequence (Q9GZR1 whole entry): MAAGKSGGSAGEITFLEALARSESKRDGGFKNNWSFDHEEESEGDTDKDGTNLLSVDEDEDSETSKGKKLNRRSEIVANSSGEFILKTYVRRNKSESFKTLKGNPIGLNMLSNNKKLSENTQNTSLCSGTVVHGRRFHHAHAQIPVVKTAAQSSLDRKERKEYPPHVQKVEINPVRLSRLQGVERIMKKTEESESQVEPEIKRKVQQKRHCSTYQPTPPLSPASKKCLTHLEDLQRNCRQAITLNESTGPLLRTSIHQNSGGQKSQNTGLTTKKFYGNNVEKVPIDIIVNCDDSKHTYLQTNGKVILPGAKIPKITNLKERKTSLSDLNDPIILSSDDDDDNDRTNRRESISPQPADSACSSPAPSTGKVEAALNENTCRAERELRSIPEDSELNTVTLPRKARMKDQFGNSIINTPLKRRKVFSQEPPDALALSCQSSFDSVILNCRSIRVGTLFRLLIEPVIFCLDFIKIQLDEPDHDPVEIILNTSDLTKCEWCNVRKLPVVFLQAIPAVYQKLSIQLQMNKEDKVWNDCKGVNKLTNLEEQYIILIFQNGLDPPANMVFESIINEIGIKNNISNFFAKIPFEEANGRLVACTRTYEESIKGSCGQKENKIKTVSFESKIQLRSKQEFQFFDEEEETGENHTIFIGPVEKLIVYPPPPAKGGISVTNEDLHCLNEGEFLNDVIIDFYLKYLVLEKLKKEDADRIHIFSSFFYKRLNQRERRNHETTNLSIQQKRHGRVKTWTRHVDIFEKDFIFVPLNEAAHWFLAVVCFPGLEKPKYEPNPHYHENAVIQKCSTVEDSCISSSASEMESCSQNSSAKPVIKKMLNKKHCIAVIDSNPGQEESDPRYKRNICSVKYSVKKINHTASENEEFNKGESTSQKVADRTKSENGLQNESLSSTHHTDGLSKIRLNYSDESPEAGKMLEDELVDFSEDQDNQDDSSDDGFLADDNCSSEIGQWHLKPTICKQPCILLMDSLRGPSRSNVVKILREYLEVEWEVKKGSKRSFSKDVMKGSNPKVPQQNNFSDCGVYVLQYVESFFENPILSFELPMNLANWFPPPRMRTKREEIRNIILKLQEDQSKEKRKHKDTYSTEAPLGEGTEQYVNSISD
Type of test: functional.

In test [15] the target is T6, Sentrin-specific protease 8 (Homo sapiens, UniProt Q96LD8).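 Also: luminescence read-out of SENP8 inhibition, dose-response confirmation following an ultra-high-throughput screen.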
T6 sequence (Q96LD8 whole entry): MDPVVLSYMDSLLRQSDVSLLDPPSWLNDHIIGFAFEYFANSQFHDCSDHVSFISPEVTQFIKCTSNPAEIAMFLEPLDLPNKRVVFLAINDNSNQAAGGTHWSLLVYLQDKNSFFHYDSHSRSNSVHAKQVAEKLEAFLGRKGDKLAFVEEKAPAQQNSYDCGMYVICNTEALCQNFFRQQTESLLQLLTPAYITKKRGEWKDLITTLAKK
It is filed as functional.

The nature of test [16]: viability of uninfected HEp-2 cells – cell-based, HTS, cytotoxicity control for RSV inhibitor project, dose response (AID 2410). Type of test: functional. The following applies: human respiratory syncytial virus.
The subject of test [17] is Vero. The experiment in a line: viability of Vero cells under compound – cytotoxicity control for flavivirus capping enzyme inhibitors (AID 588742). The following applies: Chlorocebus sabaeus. Type of test: functional.
In test [18] the test system is H9c2. Description: cells. It is filed as functional, cell-based. The following applies: Rattus norvegicus, H9c2, Myocardium.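 Also: confirmatory concentration-response retest of ultra-high-throughput screening hits for modulation of myocardial damage; cell death induced by hydrogen peroxide oxidative stress; compound pretreatment for 60 min then peroxide exposure for 2 h; potency is for protecting the cells against peroxide damage rather than for killing them.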

Here are results for eight compounds from ChEMBL document CHEMBL1201862, “PubChem BioAssay data set” (2004).

The source made the active and inactive calls. Square brackets hold non-standard residues; d marks the D form. Peptide text beside a SMILES is read from it. * marks the point of attachment. Hyp = O=C(O)[CH]1C[CH](O)CN1; Cbz = O=C(OCc1ccccc1)*; OBn = c1ccc(CO*)cc1 A value given as a limit tells only on which side of the number the result lay.

T2 sequence (P11940 whole entry, the tested form may be a part): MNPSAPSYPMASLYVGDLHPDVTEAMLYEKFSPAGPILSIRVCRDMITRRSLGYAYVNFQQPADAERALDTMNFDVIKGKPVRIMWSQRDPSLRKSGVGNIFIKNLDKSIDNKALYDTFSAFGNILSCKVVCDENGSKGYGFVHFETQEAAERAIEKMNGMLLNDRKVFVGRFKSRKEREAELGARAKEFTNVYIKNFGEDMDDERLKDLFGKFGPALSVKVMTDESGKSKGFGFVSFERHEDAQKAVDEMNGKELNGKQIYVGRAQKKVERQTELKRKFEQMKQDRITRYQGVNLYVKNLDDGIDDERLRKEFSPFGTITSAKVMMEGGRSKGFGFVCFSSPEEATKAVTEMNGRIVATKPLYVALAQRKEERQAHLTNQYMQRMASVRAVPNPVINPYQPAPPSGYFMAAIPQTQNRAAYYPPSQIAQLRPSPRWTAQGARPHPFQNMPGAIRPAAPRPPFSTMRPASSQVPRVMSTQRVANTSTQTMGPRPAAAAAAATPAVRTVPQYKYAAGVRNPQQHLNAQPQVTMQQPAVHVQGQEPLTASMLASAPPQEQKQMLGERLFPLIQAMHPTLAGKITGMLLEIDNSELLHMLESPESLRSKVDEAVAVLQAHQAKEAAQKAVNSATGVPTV

As to `CCOCCCn1c(=S)[nH]c2ncccc2c1=O`, in test [1], the half-maximal activity concentration (AC50) was 135 µM (active).

As to `COc1cc(/C=C2/SC(NS(=O)(=O)c3ccccc3)=NC2=O)c([N+](=O)[O-])cc1OC`, the IC50 in [2] is 24.1 µM (active); in test [3], 45.8 µM (active); in [4], > 66 µM (inactive); in test [5] it was > 66 µM (inactive).

For `O=C(CCCN1C(=O)/C(=C/c2cccc(Br)c2)SC1=S)NCCCN1CCOCC1`, the EC50 in [6] is 2.78 µM (inconclusive); in test [7] it was 14.7 µM (active); in [8], > 150 µM (not active); in test [9], 17.1 µM (active); in test [10], > 133 µM (inactive). Also, the CC50 in test [11] was > 25 µM (active).

Turning to `Cc1cc(C=C2C(=O)c3ccccc3C2=O)c(C)n1C`, the IC50 in test [12] was 35.2 µM (active); in test [13], 24.6 µM (active); in test [14], 56.1 µM (active); in test [15] it was 74.6 µM (active).

On to `O=C(c1cc(-c2ccc(Cl)cc2Cl)on1)N1CCCCCC1`, for which the CC50 in test [16] was 39.3 µM (active). Also, the IC50 in [12] was 17.2 µM (active); in [13], 6.51 µM (active); in test [14], 18.5 µM (active); in test [15] it was 20.5 µM (active).

Consider `CCCCOC(=O)Nc1ccc2c(C)cc(=O)oc2c1`, for which the IC50 in [12] was 7.45 µM (active); in [13] it was 4.58 µM (active); in test [14], 8.26 µM (active); in test [15], 12.7 µM (active).

As for `Oc1ccc2oc3c(c2c1/C=N/Cc1ccncc1)CCCC3`, the CC50 in test [17] is > 40 µM (active). Besides, the IC50 in test [18] was > 79 µM (inactive).

In the case of `CC(NC(=O)CNC(=O)OCc1ccccc1)C(=O)N1CC(O)CC1C(=O)OCc1ccccc1` (stereo not drawn) (Cbz-Gly-Ala-[Hyp]-OBn; configuration not given here), in test [1], the AC50 was 273 µM (active).
